Assay results from ChEMBL document CHEMBL5291721, “A preclinical secondary pharmacology resource illuminates target-adverse drug reaction associations of marketed drugs” (Nat Commun, 2023).

Assays:
Estrogen receptor [1] = target: T1, Estrogen receptor (Homo sapiens, UniProt P03372); format: functional
T1 sequence (P03372 whole entry): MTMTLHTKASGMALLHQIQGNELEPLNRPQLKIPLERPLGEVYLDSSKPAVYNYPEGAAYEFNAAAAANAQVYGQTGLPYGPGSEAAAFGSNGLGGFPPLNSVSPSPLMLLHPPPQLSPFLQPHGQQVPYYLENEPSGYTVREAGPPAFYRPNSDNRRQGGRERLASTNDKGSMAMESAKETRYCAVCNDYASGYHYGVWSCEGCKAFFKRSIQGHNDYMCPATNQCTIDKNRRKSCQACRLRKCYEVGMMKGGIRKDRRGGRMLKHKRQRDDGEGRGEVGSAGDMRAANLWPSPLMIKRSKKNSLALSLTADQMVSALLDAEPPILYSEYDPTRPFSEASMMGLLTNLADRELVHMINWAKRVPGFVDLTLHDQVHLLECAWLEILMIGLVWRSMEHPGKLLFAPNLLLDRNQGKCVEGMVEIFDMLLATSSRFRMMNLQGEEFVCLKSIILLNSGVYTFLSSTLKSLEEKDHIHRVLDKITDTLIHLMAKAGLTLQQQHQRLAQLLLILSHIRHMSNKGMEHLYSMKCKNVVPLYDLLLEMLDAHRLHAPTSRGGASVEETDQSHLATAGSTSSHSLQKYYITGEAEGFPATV

Estrogen receptor [2] = target: T1, Estrogen receptor; format: functional; remark: listed apart in the source
[3] = target: Voltage-dependent L-type calcium channel subunit alpha-1C (Homo sapiens, UniProt Q13936); format: functional, cell-based
Sequence of Voltage-dependent L-type calcium channel subunit alpha-1C (Q13936 whole entry): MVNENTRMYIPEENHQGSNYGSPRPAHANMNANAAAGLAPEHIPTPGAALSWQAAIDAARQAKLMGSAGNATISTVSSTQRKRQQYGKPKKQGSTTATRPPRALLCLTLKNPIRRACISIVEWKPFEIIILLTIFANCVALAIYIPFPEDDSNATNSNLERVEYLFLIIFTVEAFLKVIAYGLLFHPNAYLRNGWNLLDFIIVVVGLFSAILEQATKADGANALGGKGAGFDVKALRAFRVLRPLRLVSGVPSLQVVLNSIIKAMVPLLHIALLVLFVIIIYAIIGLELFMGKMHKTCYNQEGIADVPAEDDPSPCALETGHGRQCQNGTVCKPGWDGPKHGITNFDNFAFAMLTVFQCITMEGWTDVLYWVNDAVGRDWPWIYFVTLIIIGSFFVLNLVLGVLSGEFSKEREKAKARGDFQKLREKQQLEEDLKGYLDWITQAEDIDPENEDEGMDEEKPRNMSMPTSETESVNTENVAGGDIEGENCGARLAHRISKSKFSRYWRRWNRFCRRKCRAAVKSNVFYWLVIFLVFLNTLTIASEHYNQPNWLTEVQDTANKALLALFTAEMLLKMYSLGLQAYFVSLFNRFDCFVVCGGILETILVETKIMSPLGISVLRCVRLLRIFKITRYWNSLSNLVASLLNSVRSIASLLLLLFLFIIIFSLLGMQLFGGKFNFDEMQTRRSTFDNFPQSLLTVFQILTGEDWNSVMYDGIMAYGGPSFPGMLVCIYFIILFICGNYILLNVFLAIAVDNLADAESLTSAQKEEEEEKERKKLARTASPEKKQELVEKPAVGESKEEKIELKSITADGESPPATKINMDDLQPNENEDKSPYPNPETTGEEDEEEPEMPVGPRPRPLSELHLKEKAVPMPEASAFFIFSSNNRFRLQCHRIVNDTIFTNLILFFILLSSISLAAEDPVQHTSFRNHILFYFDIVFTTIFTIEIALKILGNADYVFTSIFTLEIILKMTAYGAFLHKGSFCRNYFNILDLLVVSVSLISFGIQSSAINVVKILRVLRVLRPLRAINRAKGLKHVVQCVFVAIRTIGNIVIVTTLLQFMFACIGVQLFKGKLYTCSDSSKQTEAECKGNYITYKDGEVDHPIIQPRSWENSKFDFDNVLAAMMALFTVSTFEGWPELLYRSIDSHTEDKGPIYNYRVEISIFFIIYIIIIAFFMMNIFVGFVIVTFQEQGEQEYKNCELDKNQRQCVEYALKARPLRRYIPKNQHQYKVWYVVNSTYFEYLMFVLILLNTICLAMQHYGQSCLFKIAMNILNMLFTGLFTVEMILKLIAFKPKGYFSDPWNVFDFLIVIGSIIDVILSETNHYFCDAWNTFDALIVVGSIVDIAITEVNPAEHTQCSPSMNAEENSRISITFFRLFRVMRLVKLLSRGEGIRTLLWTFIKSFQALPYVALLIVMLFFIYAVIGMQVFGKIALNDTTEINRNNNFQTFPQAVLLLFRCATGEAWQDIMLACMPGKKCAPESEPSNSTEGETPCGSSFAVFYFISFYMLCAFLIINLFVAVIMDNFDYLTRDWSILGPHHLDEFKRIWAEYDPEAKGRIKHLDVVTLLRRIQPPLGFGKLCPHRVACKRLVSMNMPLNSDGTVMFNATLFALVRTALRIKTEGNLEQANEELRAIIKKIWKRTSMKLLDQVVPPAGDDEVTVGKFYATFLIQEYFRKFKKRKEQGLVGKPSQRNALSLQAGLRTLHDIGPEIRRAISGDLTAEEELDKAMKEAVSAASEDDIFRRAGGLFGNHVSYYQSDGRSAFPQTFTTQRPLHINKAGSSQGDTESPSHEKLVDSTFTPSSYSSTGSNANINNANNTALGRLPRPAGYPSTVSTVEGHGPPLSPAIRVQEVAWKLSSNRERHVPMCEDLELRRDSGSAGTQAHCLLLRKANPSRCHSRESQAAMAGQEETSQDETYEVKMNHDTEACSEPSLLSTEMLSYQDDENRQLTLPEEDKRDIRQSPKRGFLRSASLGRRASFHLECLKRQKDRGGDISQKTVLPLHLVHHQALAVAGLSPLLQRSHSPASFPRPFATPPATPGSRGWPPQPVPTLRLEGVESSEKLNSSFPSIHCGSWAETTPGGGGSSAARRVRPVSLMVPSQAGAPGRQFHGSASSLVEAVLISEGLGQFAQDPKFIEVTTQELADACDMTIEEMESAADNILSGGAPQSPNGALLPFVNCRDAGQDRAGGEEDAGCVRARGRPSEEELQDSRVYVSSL

[4] = target: T2, Type-2 angiotensin II receptor (Homo sapiens, UniProt P50052); format: functional
T2 sequence (P50052 whole entry): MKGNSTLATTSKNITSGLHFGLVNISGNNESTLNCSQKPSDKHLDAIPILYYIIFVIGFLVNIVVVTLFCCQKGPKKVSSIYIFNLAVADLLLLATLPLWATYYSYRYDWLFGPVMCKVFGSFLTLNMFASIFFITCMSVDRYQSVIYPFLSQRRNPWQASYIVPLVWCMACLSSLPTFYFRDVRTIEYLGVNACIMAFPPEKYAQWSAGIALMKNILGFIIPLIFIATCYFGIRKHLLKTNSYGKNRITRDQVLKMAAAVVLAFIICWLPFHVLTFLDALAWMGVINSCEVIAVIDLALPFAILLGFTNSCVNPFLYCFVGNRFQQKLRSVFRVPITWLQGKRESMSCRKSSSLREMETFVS

[5] = target: T3, Muscarinic acetylcholine receptor M5 (Homo sapiens, UniProt P08912)
T3 sequence (P08912 whole entry): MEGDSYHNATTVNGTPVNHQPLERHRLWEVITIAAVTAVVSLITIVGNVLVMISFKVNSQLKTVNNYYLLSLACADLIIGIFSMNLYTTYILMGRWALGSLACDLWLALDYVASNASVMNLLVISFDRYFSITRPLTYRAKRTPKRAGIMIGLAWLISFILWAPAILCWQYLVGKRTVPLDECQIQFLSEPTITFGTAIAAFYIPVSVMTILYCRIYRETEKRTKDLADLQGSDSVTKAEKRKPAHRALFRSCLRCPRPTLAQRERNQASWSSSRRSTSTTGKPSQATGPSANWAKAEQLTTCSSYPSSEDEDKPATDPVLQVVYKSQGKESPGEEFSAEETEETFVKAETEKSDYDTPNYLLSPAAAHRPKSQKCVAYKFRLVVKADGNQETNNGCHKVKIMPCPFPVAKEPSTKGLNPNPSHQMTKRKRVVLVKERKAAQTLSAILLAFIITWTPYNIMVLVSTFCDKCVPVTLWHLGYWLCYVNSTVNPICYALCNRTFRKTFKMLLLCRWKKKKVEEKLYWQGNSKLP

Substance-K receptor = target: T4, Substance-K receptor (Homo sapiens, UniProt P21452)
T4 sequence (P21452 whole entry): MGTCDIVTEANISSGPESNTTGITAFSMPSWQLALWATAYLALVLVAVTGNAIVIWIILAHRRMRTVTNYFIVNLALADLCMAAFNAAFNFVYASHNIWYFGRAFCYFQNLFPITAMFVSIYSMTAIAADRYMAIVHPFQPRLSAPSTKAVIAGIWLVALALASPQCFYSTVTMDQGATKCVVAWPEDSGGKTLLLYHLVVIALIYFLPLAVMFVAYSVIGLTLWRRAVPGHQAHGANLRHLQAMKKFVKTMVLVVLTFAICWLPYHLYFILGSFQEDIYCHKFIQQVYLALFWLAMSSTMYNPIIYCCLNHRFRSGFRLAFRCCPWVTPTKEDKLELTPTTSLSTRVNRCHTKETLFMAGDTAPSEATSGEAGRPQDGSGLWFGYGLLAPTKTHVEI

[6] = target: 5-hydroxytryptamine receptor 5A (Homo sapiens, UniProt P47898)
Sequence of 5-hydroxytryptamine receptor 5A (P47898 whole entry): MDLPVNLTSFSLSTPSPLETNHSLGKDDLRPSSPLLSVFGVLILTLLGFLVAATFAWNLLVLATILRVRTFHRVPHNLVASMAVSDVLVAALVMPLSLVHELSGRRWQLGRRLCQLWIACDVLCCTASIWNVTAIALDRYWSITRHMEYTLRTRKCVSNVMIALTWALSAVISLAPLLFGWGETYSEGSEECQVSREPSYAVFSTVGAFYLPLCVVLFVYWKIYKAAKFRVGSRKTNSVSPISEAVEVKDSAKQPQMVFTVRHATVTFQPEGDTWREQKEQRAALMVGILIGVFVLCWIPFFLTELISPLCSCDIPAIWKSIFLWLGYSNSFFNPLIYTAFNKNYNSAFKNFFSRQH

[7] = target: 5-hydroxytryptamine receptor 6 (Homo sapiens, UniProt P50406)
Sequence of 5-hydroxytryptamine receptor 6 (P50406 whole entry): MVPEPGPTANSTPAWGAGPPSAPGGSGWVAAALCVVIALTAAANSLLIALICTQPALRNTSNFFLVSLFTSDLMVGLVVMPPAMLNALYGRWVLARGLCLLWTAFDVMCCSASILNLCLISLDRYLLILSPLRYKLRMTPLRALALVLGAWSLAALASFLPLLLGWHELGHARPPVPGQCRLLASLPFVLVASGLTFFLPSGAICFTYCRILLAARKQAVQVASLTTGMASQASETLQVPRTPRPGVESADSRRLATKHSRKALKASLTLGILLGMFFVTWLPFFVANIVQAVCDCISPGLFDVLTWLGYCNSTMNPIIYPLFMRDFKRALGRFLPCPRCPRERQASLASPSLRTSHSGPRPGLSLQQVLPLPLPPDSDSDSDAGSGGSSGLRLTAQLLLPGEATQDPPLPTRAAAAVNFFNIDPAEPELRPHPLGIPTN

[8] = target: Synaptic vesicular amine transporter (Rattus norvegicus, UniProt Q01827); format: functional
Sequence of Synaptic vesicular amine transporter (Q01827 whole entry): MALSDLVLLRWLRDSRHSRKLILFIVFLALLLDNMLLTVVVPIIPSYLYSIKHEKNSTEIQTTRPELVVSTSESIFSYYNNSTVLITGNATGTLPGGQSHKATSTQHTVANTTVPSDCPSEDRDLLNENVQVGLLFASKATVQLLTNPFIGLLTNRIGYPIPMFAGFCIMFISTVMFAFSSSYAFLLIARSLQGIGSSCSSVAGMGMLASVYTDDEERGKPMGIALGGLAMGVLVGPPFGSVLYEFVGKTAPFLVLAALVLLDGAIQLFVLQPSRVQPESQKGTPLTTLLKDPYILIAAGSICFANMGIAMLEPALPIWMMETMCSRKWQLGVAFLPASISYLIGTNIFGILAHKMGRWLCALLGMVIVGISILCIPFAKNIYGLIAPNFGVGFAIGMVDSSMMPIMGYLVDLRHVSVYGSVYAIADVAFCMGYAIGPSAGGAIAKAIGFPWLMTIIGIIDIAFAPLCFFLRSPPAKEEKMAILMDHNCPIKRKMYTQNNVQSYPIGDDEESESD

[9] = target: Rod cGMP-specific 3',5'-cyclic phosphodiesterase subunit alpha (Homo sapiens, UniProt P16499); format: functional
Sequence of Rod cGMP-specific 3',5'-cyclic phosphodiesterase subunit alpha (P16499 whole entry): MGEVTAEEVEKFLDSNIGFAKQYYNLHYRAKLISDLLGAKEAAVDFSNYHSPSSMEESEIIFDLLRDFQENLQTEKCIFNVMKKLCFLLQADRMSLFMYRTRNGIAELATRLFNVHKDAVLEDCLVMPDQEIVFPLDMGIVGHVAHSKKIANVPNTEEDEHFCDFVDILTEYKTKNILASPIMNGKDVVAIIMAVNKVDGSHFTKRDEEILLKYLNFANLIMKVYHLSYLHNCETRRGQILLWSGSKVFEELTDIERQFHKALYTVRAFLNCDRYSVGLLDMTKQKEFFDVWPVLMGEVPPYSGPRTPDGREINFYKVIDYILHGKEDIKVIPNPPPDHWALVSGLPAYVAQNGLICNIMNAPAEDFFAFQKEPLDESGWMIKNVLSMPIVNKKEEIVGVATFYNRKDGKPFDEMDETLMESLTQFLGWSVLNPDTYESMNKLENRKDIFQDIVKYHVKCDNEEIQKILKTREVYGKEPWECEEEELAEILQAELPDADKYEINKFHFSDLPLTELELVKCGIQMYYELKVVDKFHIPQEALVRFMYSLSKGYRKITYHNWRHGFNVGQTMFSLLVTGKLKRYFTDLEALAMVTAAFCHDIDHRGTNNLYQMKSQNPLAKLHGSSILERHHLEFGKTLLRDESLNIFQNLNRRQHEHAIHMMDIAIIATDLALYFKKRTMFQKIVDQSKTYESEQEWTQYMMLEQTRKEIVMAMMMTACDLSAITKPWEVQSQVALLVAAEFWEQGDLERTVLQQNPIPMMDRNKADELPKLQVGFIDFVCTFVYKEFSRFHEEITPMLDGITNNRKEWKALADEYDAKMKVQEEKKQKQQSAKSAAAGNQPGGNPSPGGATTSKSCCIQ
Note: assay procedure not described here.

Structure (SMILES): COC(=O)c1ccc2c(c1)NC(=O)/C2=C(\Nc1ccc(N(C)C(=O)CN2CCN(C)CC2)cc1)c1ccccc1 [NINTEDANIB]
- AC50 (Estrogen receptor [1]): > 30 µM
- AC50 (Estrogen receptor [2]): > 10 µM

Structure (SMILES): CCCCCCCC(=O)CC[C@@H]1[C@@H](C/C=C\CCCC(=O)O)[C@@H](O)C[C@H]1O [UNOPROSTONE]
- AC50 [3]: > 50 µM

Structure (SMILES): CC(C)(C)NCC(O)COc1cccc2c1CC(O)C(O)C2 (stereo not drawn) [NADOLOL]
- AC50 [4]: > 100 µM

Structure (SMILES): CC(NC(C)(C)C)C(=O)c1cccc(Cl)c1 (stereo not drawn) [BUPROPION]
- AC50 [5]: > 10 µM
- AC50 (Substance-K receptor): > 10 µM
- AC50 [6]: > 10 µM
- AC50 [7]: > 10 µM
- AC50 [8]: > 30 µM

Structure (SMILES): O=C(O)c1ccc2nc(-c3cc(Cl)cc(Cl)c3)oc2c1
- AC50 [3]: > 30 µM

Structure (SMILES): CC1Cc2ccccc2N1NC(=O)c1ccc(Cl)c(S(N)(=O)=O)c1 (stereo not drawn) [INDAPAMIDE]
- AC50 [4]: > 100 µM

Structure (SMILES): CC(=O)N1CCN(c2ccc(OCC3COC(Cn4ccnc4)(c4ccc(Cl)cc4Cl)O3)cc2)CC1 (stereo not drawn) [KETOCONAZOLE]
- AC50 [8]: 0.57 µM

Structure (SMILES): CN1C2CCCC1CC(NC(=O)c1nn(C)c3ccccc13)C2 (stereo not drawn) [GRANISETRON]
- AC50 [9]: > 10 µM
- AC50 [5]: > 10 µM
- AC50 (Substance-K receptor): > 10 µM
- AC50 [6]: > 10 µM
- AC50 [7]: > 10 µM

Structure (SMILES): CCCCCCOC(=O)NC(=N)c1ccc(NCc2nc3cc(C(=O)N(CCC(=O)OCC)c4ccccn4)ccc3n2C)cc1 [DABIGATRAN ETEXILATE]
- AC50 (Estrogen receptor [1]): > 30 µM
- AC50 (Estrogen receptor [2]): > 30 µM

Structure (SMILES): Cc1ccc(-c2ncc(Cl)cc2-c2ccc(S(C)(=O)=O)cc2)cn1 [ETORICOXIB]
- AC50 [9]: > 10 µM
- AC50 [5]: > 10 µM
- AC50 (Substance-K receptor): > 10 µM
- AC50 [6]: > 10 µM
- AC50 [7]: > 10 µM

Structure (SMILES): CCN(CC)CC(=O)Nc1c(C)cccc1C [LIDOCAINE]
- AC50 [9]: > 10 µM
- AC50 (Substance-K receptor): > 10 µM

Structure (SMILES): COc1ccc(-n2nc(C(N)=O)c3c2C(=O)N(c2ccc(N4CCCCC4=O)cc2)CC3)cc1 [APIXABAN]
- AC50 (Estrogen receptor [1]): > 30 µM
- AC50 (Estrogen receptor [2]): > 30 µM
